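Tested at 5 concentrations; 48 h exposure; 96-well plates; endpoints linearly interpolated, else capped at highest concentration. GI50: concentration for 50% inhibition of growth. TGI is the concentration that stops growth completely.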
Legend:
Test in all cases: NCI anticancer screen, dose series, 48 h
SK-MEL-2 melanoma = system: SK-MEL-2 melanoma
NCI-H460 lung = system: NCI-H460 lung
SK-MEL-28 melanoma = system: SK-MEL-28 melanoma
HT29 colon = system: HT29 colon
TK-10 renal = system: TK-10 renal
IGROV1 ovarian = system: IGROV1 ovarian
MDA-MB-435 = system: MDA-MB-435
DU-145 prostate = system: DU-145 prostate
SW-620 colon = system: SW-620 colon
T-47D breast = system: T-47D breast
HOP-62 NSCLC = system: HOP-62 NSCLC
UO-31 renal = system: UO-31 renal
SK-MEL-5 melanoma = system: SK-MEL-5 melanoma
EKVX NSCLC = system: EKVX NSCLC
786-0 renal = system: 786-0 renal
K-562 leukemia = system: K-562 leukemia
LOX IMVI melanoma = system: LOX IMVI melanoma
HCT-116 colon = system: HCT-116 colon
NCI-H522 lung = system: NCI-H522 lung
BT-549 breast = system: BT-549 breast
SK-OV-3 ovarian = system: SK-OV-3 ovarian
HOP-92 NSCLC = system: HOP-92 NSCLC
SF-295 CNS = system: SF-295 CNS
OVCAR-4 ovarian = system: OVCAR-4 ovarian
RXF 393 renal = system: RXF 393 renal
UACC-62 melanoma = system: UACC-62 melanoma
OVCAR-5 ovarian = system: OVCAR-5 ovarian
NCI-H226 lung = system: NCI-H226 lung
HL-60(TB) leukemia = system: HL-60(TB) leukemia
U251 CNS = system: U251 CNS
SR leukemia = system: SR leukemia
SNB-19 CNS = system: SNB-19 CNS
A498 renal = system: A498 renal
RPMI-8226 leukemia = system: RPMI-8226 leukemia
SF-268 CNS = system: SF-268 CNS
NCI/ADR-RES ovarian = system: NCI/ADR-RES ovarian
ACHN renal = system: ACHN renal
KM12 colon = system: KM12 colon
UACC-257 melanoma = system: UACC-257 melanoma
SNB-75 CNS = system: SNB-75 CNS
OVCAR-8 ovarian = system: OVCAR-8 ovarian
A549 NSCLC = system: A549 NSCLC
COLO 205 colon = system: COLO 205 colon
HCC-2998 colon = system: HCC-2998 colon
M14 melanoma = system: M14 melanoma
NCI-H23 lung = system: NCI-H23 lung
MOLT-4 leukemia = system: MOLT-4 leukemia
SF-539 CNS = system: SF-539 CNS
PC-3 prostate = system: PC-3 prostate
MDA-MB-231 breast = system: MDA-MB-231 breast
SN12C renal = system: SN12C renal
HCT-15 colon = system: HCT-15 colon
HS 578T breast = system: HS 578T breast
CCRF-CEM leukemia = system: CCRF-CEM leukemia
MALME-3M melanoma = system: MALME-3M melanoma
CAKI-1 renal = system: CAKI-1 renal
MCF7 breast = system: MCF7 breast

CCN1CCN(c2ccc(NC(=O)Nc3ccc4c(ccn4-c4ccnc(C(=O)NC)c4)c3)cc2C(F)(F)F)CC1
GI50 (SK-MEL-2 melanoma): 12.6 µM | TGI (SK-MEL-2 melanoma): > 14.3 µM | GI50 (NCI-H460 lung): 2.59 µM | TGI (NCI-H460 lung): 5.03 µM | GI50 (SK-MEL-28 melanoma): 2.28 µM | TGI (SK-MEL-28 melanoma): 4.37 µM | GI50 (HT29 colon): 1.07 µM | TGI (HT29 colon): 3.22 µM | GI50 (TK-10 renal): 2.68 µM | TGI (TK-10 renal): 4.82 µM | GI50 (IGROV1 ovarian): 2.67 µM | TGI (IGROV1 ovarian): 5.61 µM | GI50 (MDA-MB-435): 2.46 µM | TGI (MDA-MB-435): 4.56 µM | GI50 (DU-145 prostate): 2.59 µM | TGI (DU-145 prostate): 4.88 µM | GI50 (SW-620 colon): 2.5 µM | TGI (SW-620 colon): 4.79 µM | GI50 (T-47D breast): > 14.3 µM | TGI (T-47D breast): > 14.3 µM | GI50 (HOP-62 NSCLC): 2.13 µM | TGI (HOP-62 NSCLC): 4.3 µM | GI50 (UO-31 renal): 2.23 µM | TGI (UO-31 renal): 4.21 µM | GI50 (SK-MEL-5 melanoma): 2.52 µM | TGI (SK-MEL-5 melanoma): 4.56 µM | GI50 (EKVX NSCLC): 2.27 µM | TGI (EKVX NSCLC): 4.47 µM | GI50 (786-0 renal): 1.73 µM | TGI (786-0 renal): 3.63 µM | GI50 (K-562 leukemia): 0.793 µM | TGI (K-562 leukemia): 4.14 µM | GI50 (LOX IMVI melanoma): 2.21 µM | TGI (LOX IMVI melanoma): 4.22 µM | GI50 (HCT-116 colon): 2 µM | TGI (HCT-116 colon): 3.88 µM | GI50 (NCI-H522 lung): > 14.3 µM | TGI (NCI-H522 lung): > 14.3 µM | GI50 (BT-549 breast): > 14.3 µM | TGI (BT-549 breast): > 14.3 µM | GI50 (SK-OV-3 ovarian): > 14.3 µM | TGI (SK-OV-3 ovarian): > 14.3 µM | GI50 (HOP-92 NSCLC): 1.55 µM | TGI (HOP-92 NSCLC): 3.44 µM | GI50 (SF-295 CNS): 0.925 µM | TGI (SF-295 CNS): 2.85 µM | GI50 (OVCAR-4 ovarian): 2.65 µM | TGI (OVCAR-4 ovarian): 5.86 µM | GI50 (RXF 393 renal): 1.42 µM | TGI (RXF 393 renal): 3.58 µM | GI50 (UACC-62 melanoma): 2.34 µM | TGI (UACC-62 melanoma): 4.55 µM | GI50 (OVCAR-5 ovarian): 11.4 µM | TGI (OVCAR-5 ovarian): > 14.3 µM | GI50 (NCI-H226 lung): > 14.3 µM | TGI (NCI-H226 lung): > 14.3 µM | GI50 (HL-60(TB) leukemia): 2.66 µM | TGI (HL-60(TB) leukemia): 6.11 µM | GI50 (U251 CNS): 1.64 µM | TGI (U251 CNS): 3.53 µM | GI50 (SR leukemia): 0.644 µM | TGI (SR leukemia): 3.22 µM | GI50 (SNB-19 CNS): 2.36 µM | TGI (SNB-19 CNS): 4.81 µM | GI50 (A498 renal): 13.5 µM | TGI (A498 renal): > 14.3 µM | GI50 (RPMI-8226 leukemia): 1.57 µM | TGI (RPMI-8226 leukemia): > 14.3 µM | GI50 (SF-268 CNS): 2.53 µM | TGI (SF-268 CNS): 5.66 µM | GI50 (NCI/ADR-RES ovarian): 3.08 µM | TGI (NCI/ADR-RES ovarian): 7.44 µM | GI50 (ACHN renal): 2.56 µM | TGI (ACHN renal): 4.55 µM | GI50 (KM12 colon): 0.741 µM | TGI (KM12 colon): 2.85 µM | GI50 (UACC-257 melanoma): 2.45 µM | TGI (UACC-257 melanoma): 4.68 µM | GI50 (SNB-75 CNS): 5.22 µM | TGI (SNB-75 CNS): > 14.3 µM | GI50 (OVCAR-8 ovarian): 2.62 µM | TGI (OVCAR-8 ovarian): 5.49 µM | GI50 (A549 NSCLC): 2.28 µM | TGI (A549 NSCLC): 4.5 µM | GI50 (COLO 205 colon): > 14.3 µM | TGI (COLO 205 colon): > 14.3 µM | GI50 (HCC-2998 colon): 2.47 µM | TGI (HCC-2998 colon): 4.54 µM | GI50 (M14 melanoma): 2.35 µM | TGI (M14 melanoma): 4.36 µM | GI50 (NCI-H23 lung): 2.08 µM | TGI (NCI-H23 lung): 4.23 µM | GI50 (MOLT-4 leukemia): 1.79 µM | TGI (MOLT-4 leukemia): 9.46 µM | GI50 (SF-539 CNS): 1.63 µM | TGI (SF-539 CNS): 3.48 µM | GI50 (PC-3 prostate): 2.34 µM | TGI (PC-3 prostate): 7.38 µM | GI50 (MDA-MB-231 breast): 2.53 µM | TGI (MDA-MB-231 breast): 5.01 µM | GI50 (SN12C renal): > 14.3 µM | TGI (SN12C renal): > 14.3 µM | GI50 (HCT-15 colon): 1.04 µM | TGI (HCT-15 colon): 3.35 µM | GI50 (HS 578T breast): 2.5 µM | TGI (HS 578T breast): 13.7 µM | GI50 (CCRF-CEM leukemia): 3.77 µM | TGI (CCRF-CEM leukemia): > 14.3 µM | GI50 (MALME-3M melanoma): 2.07 µM | TGI (MALME-3M melanoma): 4.22 µM | GI50 (CAKI-1 renal): 2.68 µM | TGI (CAKI-1 renal): 5.07 µM | GI50 (MCF7 breast): 2.15 µM | TGI (MCF7 breast): 5.05 µM

From PubChem BioAssay (NCI)
